Test results: ChEMBL document CHEMBL1201862, “PubChem BioAssay data set” (2004)
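Grown in 96-well plates, cells were treated for 48 hours with each compound at five concentrations. Insufficient inhibition: endpoint recorded as highest concentration tested. GI50 = concentration required for 50% inhibition of growth.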 Activity calls are given as the source filed them. No stated cut-off is given here; in the data, active = GI50 up to about 1.1 µM and inactive = higher. Bridge positions count the residues as written; N and C are the ends. Square brackets hold non-standard residues; d marks the D form. Peptide text beside a SMILES is read from it. * marks the point of attachment. Cbz = O=C(OCc1ccccc1)*; Dab = NCC[CH](N)C(=O)O; Bn = c1ccc(C*)cc1

Columns and labels:
Test in all cases: NCI-60 cell line screen, 48 h
SF-295 = tested on: SF-295
TK-10 = tested on: TK-10
HOP-92 = tested on: HOP-92
SW-620 = tested on: SW-620
NCI-H23 = tested on: NCI-H23
SF-539 = tested on: SF-539
U-251 = tested on: U-251
NCI-H460 = tested on: NCI-H460
OVCAR-4 = tested on: OVCAR-4
SN12C = tested on: SN12C
IGROV-1 = tested on: IGROV-1
M14 = tested on: M14
DMS-273 = tested on: DMS-273
ACHN = tested on: ACHN
MOLT-4 = tested on: MOLT-4
COLO 205 = tested on: COLO 205
NCI/ADR-RES = tested on: NCI/ADR-RES
Hs-578T = tested on: Hs-578T
MDA-MB-231 = tested on: MDA-MB-231
SR = tested on: SR

SMILES	GI50 (SF-295)	GI50 (TK-10)	GI50 (HOP-92)	GI50 (SW-620)	GI50 (NCI-H23)	GI50 (SF-539)	GI50 (U-251)	GI50 (NCI-H460)	GI50 (OVCAR-4)	GI50 (SN12C)	GI50 (IGROV-1)	GI50 (M14)	GI50 (DMS-273)	GI50 (ACHN)	GI50 (MOLT-4)	GI50 (COLO 205)	GI50 (NCI/ADR-RES)	GI50 (Hs-578T)	GI50 (MDA-MB-231)	GI50 (SR)
COC(=O)C1=C(c2ccc(OC)c(OC)c2)OC(c2cc(OC)c(OC)c(OC)c2)C1 (centres undefined)	23 µM (inactive)	39.2 µM (inactive)	23.2 µM (inactive)	41.6 µM (inactive)	99.3 µM (inactive)	30.2 µM (inactive)	13.5 µM (inactive)	> 100 µM (inactive)	16.1 µM (inactive)	34.3 µM (inactive)	24.7 µM (inactive)	65.6 µM (inactive)	18.7 µM (inactive)	36.4 µM (inactive)	–	–	–	–	–	–
COC(=O)C1=C(C)N(NC(N)=O)C2(N)N(NC(N)=O)C(C)=C(C(=O)OC)C12C#N (centres undefined)	> 100 µM (inactive)	> 100 µM (inactive)	> 100 µM (inactive)	> 100 µM (inactive)	> 100 µM (inactive)	> 100 µM (inactive)	> 100 µM (inactive)	> 100 µM (inactive)	> 100 µM (inactive)	> 100 µM (inactive)	> 100 µM (inactive)	> 100 µM (inactive)	> 100 µM (inactive)	> 100 µM (inactive)	> 100 µM (inactive)	> 100 µM (inactive)	–	–	–	–
COc1ccc(S(=O)(=O)N/N=C/c2cc(I)cc([N+](=O)[O-])c2O)cc1OC	29 µM (inactive)	62.1 µM (inactive)	19.1 µM (inactive)	47.8 µM (inactive)	–	–	32.7 µM (inactive)	55 µM (inactive)	25.2 µM (inactive)	32.8 µM (inactive)	37.7 µM (inactive)	36.1 µM (inactive)	35.2 µM (inactive)	30.4 µM (inactive)	24.8 µM (inactive)	50.9 µM (inactive)	–	–	–	–
CC(C)(C)C1CCC2(CC1)c1[nH]c3ccccc3c1C1(CCC(C(C)(C)C)CC1)c1[nH]c3ccccc3c12 (centres undefined)	> 100 µM (inactive)	> 100 µM (inactive)	> 100 µM (inactive)	39.4 µM (inactive)	> 100 µM (inactive)	> 100 µM (inactive)	87.3 µM (inactive)	> 100 µM (inactive)	> 100 µM (inactive)	> 100 µM (inactive)	> 100 µM (inactive)	> 100 µM (inactive)	> 100 µM (inactive)	> 100 µM (inactive)	> 100 µM (inactive)	88.9 µM (inactive)	–	–	–	–
C1CCN(C2OC3C(COC3N3CCCCC3)OC2OC2CCO[C@@H]2N2CCCCC2)CC1 (some centres undefined)	47.5 µM (inactive)	80.9 µM (inactive)	11 µM (inactive)	81.3 µM (inactive)	21.1 µM (inactive)	16.5 µM (inactive)	30.5 µM (inactive)	> 100 µM (inactive)	34 µM (inactive)	43.1 µM (inactive)	79.3 µM (inactive)	40.6 µM (inactive)	32.1 µM (inactive)	25.9 µM (inactive)	15.8 µM (inactive)	38.3 µM (inactive)	–	–	–	–
CON1C(=O)C2(CCCCC2)C(=O)C12C=CC(C)CC2 (centres undefined)	> 100 µM (inactive)	> 100 µM (inactive)	–	> 100 µM (inactive)	> 100 µM (inactive)	> 100 µM (inactive)	> 100 µM (inactive)	> 100 µM (inactive)	–	> 100 µM (inactive)	> 100 µM (inactive)	> 100 µM (inactive)	> 100 µM (inactive)	–	78.9 µM (inactive)	> 100 µM (inactive)	–	–	–	–
Nc1ncnc2c1ncn2CC(O)CO (centres undefined)	> 100 µM (inactive)	> 100 µM (inactive)	> 100 µM (inactive)	> 100 µM (inactive)	> 100 µM (inactive)	> 100 µM (inactive)	–	> 100 µM (inactive)	> 100 µM (inactive)	> 100 µM (inactive)	> 100 µM (inactive)	> 100 µM (inactive)	> 100 µM (inactive)	–	> 100 µM (inactive)	> 100 µM (inactive)	–	–	–	–
Cc1ccccc1C1CC(=O)CC(c2ccccc2C)C12C(=O)NC(=O)NC2=O (centres undefined)	> 100 µM (inactive)	> 100 µM (inactive)	19 µM (inactive)	> 100 µM (inactive)	> 100 µM (inactive)	> 32.4 µM (inactive)	> 100 µM (inactive)	> 88.5 µM (inactive)	> 62.4 µM (inactive)	1.98 µM (inactive)	62.5 µM (inactive)	> 100 µM (inactive)	–	> 100 µM (inactive)	> 78.5 µM (inactive)	> 100 µM (inactive)	> 100 µM (inactive)	> 100 µM (inactive)	> 100 µM (inactive)	> 100 µM (inactive)
O=C1C2Cc3ccccc3CN2C(=O)N1CN1CCN(CN2C(=O)C3Cc4ccccc4CN3C2=O)CC1 (centres undefined)	> 100 µM (inactive)	> 100 µM (inactive)	> 100 µM (inactive)	> 100 µM (inactive)	> 100 µM (inactive)	> 100 µM (inactive)	> 100 µM (inactive)	> 100 µM (inactive)	–	> 100 µM (inactive)	> 100 µM (inactive)	–	> 100 µM (inactive)	> 100 µM (inactive)	> 100 µM (inactive)	> 100 µM (inactive)	–	–	–	–
CC(C)CC1NC(=O)C(Cc2ccccc2)NC(=O)C(Cc2ccccc2)NC(=O)C(NC(=O)C(Cc2ccc(OCc3ccccc3)cc2)NC(=O)OCc2ccccc2)CCNC1=O (centres undefined) (Cbz-Y(Bn)[Dab]FFL; lactam 2-C; configuration not given here)	> 100 µM (inactive)	32.6 µM (inactive)	40.2 µM (inactive)	> 100 µM (inactive)	87.1 µM (inactive)	> 100 µM (inactive)	29.4 µM (inactive)	35.1 µM (inactive)	47.2 µM (inactive)	> 100 µM (inactive)	78.5 µM (inactive)	18.6 µM (inactive)	–	> 100 µM (inactive)	14.6 µM (inactive)	> 100 µM (inactive)	> 100 µM (inactive)	> 100 µM (inactive)	16.4 µM (inactive)	63.1 µM (inactive)
Cn1c(=O)cc(NNc2ccc(Cl)c(Cl)c2)[nH]c1=O	15.3 µM (inactive)	16.7 µM (inactive)	14.9 µM (inactive)	6.1 µM (inactive)	29.2 µM (inactive)	15.1 µM (inactive)	12.4 µM (inactive)	4.86 µM (inactive)	10.7 µM (inactive)	4.34 µM (inactive)	6.52 µM (inactive)	5.25 µM (inactive)	–	5.46 µM (inactive)	14.5 µM (inactive)	18.9 µM (inactive)	13.3 µM (inactive)	20.4 µM (inactive)	10.8 µM (inactive)	> 100 µM (inactive)
CCOP(=O)(OCC)/C(C#N)=C/c1ccccn1	> 100 µM (inactive)	> 100 µM (inactive)	> 100 µM (inactive)	> 100 µM (inactive)	> 100 µM (inactive)	> 100 µM (inactive)	> 100 µM (inactive)	> 100 µM (inactive)	> 100 µM (inactive)	> 100 µM (inactive)	> 100 µM (inactive)	> 100 µM (inactive)	–	> 100 µM (inactive)	> 100 µM (inactive)	> 100 µM (inactive)	> 100 µM (inactive)	> 100 µM (inactive)	> 100 µM (inactive)	> 100 µM (inactive)
Cc1cn(CCC(N)C(=O)O)c(=O)[nH]c1=O (centres undefined)	> 100 µM (inactive)	> 100 µM (inactive)	> 100 µM (inactive)	> 100 µM (inactive)	> 100 µM (inactive)	> 100 µM (inactive)	> 100 µM (inactive)	> 100 µM (inactive)	> 100 µM (inactive)	> 100 µM (inactive)	> 100 µM (inactive)	> 100 µM (inactive)	–	> 100 µM (inactive)	> 100 µM (inactive)	> 100 µM (inactive)	> 100 µM (inactive)	> 100 µM (inactive)	> 100 µM (inactive)	> 100 µM (inactive)
COc1cc2c(c3c1c(=O)c1ccccc1n3C)C=CC1(CCCC1)O2	3.63 µM (inactive)	15.6 µM (inactive)	16.6 µM (inactive)	20.4 µM (inactive)	12.9 µM (inactive)	4.16 µM (inactive)	12.8 µM (inactive)	10.2 µM (inactive)	12.2 µM (inactive)	19.1 µM (inactive)	12.9 µM (inactive)	13.3 µM (inactive)	–	16.3 µM (inactive)	26.2 µM (inactive)	13.6 µM (inactive)	23.7 µM (inactive)	2.61 µM (inactive)	12.4 µM (inactive)	7.94 µM (inactive)
OCCc1ccsc1-c1sc(-c2cc(CCO)c(-c3sc(-c4cc(CCO)c(-c5sccc5CCO)s4)cc3CCO)s2)cc1CCO	1.29 µM (inactive)	1.55 µM (inactive)	1.14 µM (inactive)	1.31 µM (inactive)	0.853 µM (active)	1.44 µM (inactive)	0.957 µM (active)	0.841 µM (active)	1.16 µM (inactive)	1.85 µM (inactive)	1.21 µM (inactive)	1.82 µM (inactive)	–	1.47 µM (inactive)	0.52 µM (active)	1.54 µM (inactive)	1.86 µM (inactive)	3.13 µM (inactive)	2.83 µM (inactive)	0.684 µM (active)
COc1cc(CCNC2=CC(=O)c3ncccc3C2=O)ccc1O	1.6 µM (inactive)	26.9 µM (inactive)	19.2 µM (inactive)	2.84 µM (inactive)	0.828 µM (active)	3.04 µM (inactive)	2.09 µM (inactive)	1.02 µM (active)	4.79 µM (inactive)	1.97 µM (inactive)	2.29 µM (inactive)	1.71 µM (inactive)	–	4.71 µM (inactive)	2.99 µM (inactive)	18.6 µM (inactive)	2.93 µM (inactive)	2.36 µM (inactive)	2.37 µM (inactive)	3.48 µM (inactive)
